Literature values, collected in PMC7761830, “Structure-Based Virtual Screening of Ultra-Large Library Yields Potent Antagonists for a Lipid GPCR” (Biomolecules, 2020).

Key:
CysLT1R = conditions: cited from earlier work; for pAct: CysLT1R, ChEMBL value, ref 29 (ChEMBL)
CysLT2R = conditions: cited from earlier work; for pAct: CysLT2R, ChEMBL value, ref 29 (ChEMBL)

Row | SMILES | pAct (CysLT1R) | pAct (CysLT2R) | other results
1 | O=C(O)CCCN1CC(c2nnn[nH]2)Oc2c(C=Cc3ccc(OCCCCc4ccccc4)cc3)cccc21 (centres unmarked) [CHEMBL3403186, C(CCOc1ccc(C=Cc2cccc3c2OC(CN3CCCC(O)=O)c2nnn[nH]2)cc1)Cc1ccccc1] | 9.2 | 8.5 | 
2 | O=C(O)CCCN1CC(C(=O)NS(=O)(=O)c2ccccc2)Oc2c(NC(=O)c3ccc(OCCCCc4ccccc4)cc3)cccc21 (centres unmarked) [CHEMBL3401691, C(CCOc1ccc(cc1)C(Nc1cccc2c1OC(CN2CCCC(O)=O)C(NS(c1ccccc1)(=O)=O)=O)=O)Cc1ccccc1] |  | 8.2 | 
3 | O=C(O)CCCN1CC(C(=O)O)Oc2c(NC(=O)c3ccc(OCCCCCc4ccccc4)cc3)cccc21 (centres unmarked) [CHEMBL3342959, C(CCc1ccccc1)CCOc1ccc(cc1)C(Nc1cccc2c1OC(CN2CCCC(O)=O)C(O)=O)=O] |  | 9.2 | 
4 | O=C(O)CCCN1CC(C(=O)O)Oc2c(C=Cc3ccc(OCCCCc4ccccc4)cc3)cccc21 (centres unmarked) [CHEMBL3401687, C(CCOc1ccc(C=Cc2cccc3c2OC(CN3CCCC(O)=O)C(O)=O)cc1)Cc1ccccc1] |  | 8.2 | 
5 | O=C(O)CCCc1cn(CC(=O)O)c2c(C=Cc3ccc(OCCCCOc4ccccc4)cc3)cccc12 [CHEMBL3597522, C(CC(O)=O)Cc1cn(CC(O)=O)c2c(C=Cc3ccc(cc3)OCCCCOc3ccccc3)cccc12] |  | 8.2 | 
6 | O=C(O)CCCN1CC(c2nn[nH]n2)Oc2c(NC(=O)c3ccc(OCCCCc4ccccc4)cc3)cccc21 (centres unmarked) [CHEMBL3401689, C(CCOc1ccc(cc1)C(Nc1cccc2c1OC(CN2CCCC(O)=O)c1nn[nH]n1)=O)Cc1ccccc1] |  | 9.3 | 
7 | O=C(O)c1[nH]c2ccccc2c1C(=O)Nc1cccc(/C=C/c2ccc3ccc(Cl)cc3n2)c1 [CHEMBL3809164] |  |  | IC50 (CysLT1R; activity of the ligand from ChEMBL, ref ChEMBL, read-out: IC50 (CysLT1)): 35 nM
8 | COc1cc(C(=O)NS(=O)(=O)c2ccccc2C)ccc1Cc1cn(C)c2ccc(NC(=O)OC3CCCC3)cc12 [CHEMBL603, Cc1ccccc1S(NC(c1ccc(Cc2cn(C)c3ccc(cc23)NC(=O)OC2CCCC2)c(c1)OC)=O)(=O)=O] | 11.4 |  | 
9 | O=C(O)CCCN1C[C@@H](C(=O)O)Oc2c(NC(=O)c3ccc(OCCCCc4ccccc4)cc3)cccc21 [CHEMBL3342964, C(CCOc1ccc(cc1)C(Nc1cccc2c1O[C@@H](CN2CCCC(O)=O)C(O)=O)=O)Cc1ccccc1] |  | 9.1 | 
10 | O=C(O)CCCN1CC(C(=O)O)Oc2c(C=Cc3ccc(OCCCCOc4ccccc4)cc3)cccc21 (centres unmarked) [CHEMBL3403187, C(CC(O)=O)CN1CC(C(O)=O)Oc2c(C=Cc3ccc(cc3)OCCCCOc3ccccc3)cccc12] |  | 9.5 | 
11 | O=C(O)c1ccc(OCCCc2ccc(OCCCCOc3ccccc3)cc2)c(C(=O)NC2CCCC(C(=O)O)C2)c1 (centres unmarked) [CHEMBL3342945] |  |  | IC50 (CysLT2R; activity of the ligand from ChEMBL, ref ChEMBL, read-out: IC50 (CysLT2)): 53 nM
12 | CCCCCC=CCC=CC=CC=C[C@@H](SC[C@H](N)C(=O)NCC(=O)O)[C@@H](O)CCCC(=O)O [CHEMBL288943, CCCCCC=CCC=CC=CC=C[C@H]([C@H](CCCC(O)=O)O)SC[C@@H](C(NCC(O)=O)=O)N] | 9.5 |  | 
13 | CC(C)(O)c1ccc(CC[C@@H](SCC2(CC(=O)O)CC2)c2cccc(C=Cc3ccc4sc(Cl)c(Cl)c4n3)c2)cc1 [CHEMBL313187, CC(C)(c1ccc(CC[C@H](c2cccc(C=Cc3ccc4c(c(c(s4)[Cl])[Cl])n3)c2)SCC2(CC2)CC(O)=O)cc1)O] | 9.4 |  | 
